According to US20140286903A1, “Substituted Purine Nucleosides, Phosphoramidate and Phosphordiamidate Derivatives for Treatment if Viral Infections” (INHIBITEX, INC., priority 2011, published 2014):

What was measured:
[1] = Cytotoxicity assay (CellTiter-Glo); format: cell-based; settings: human, 72 h incubation, concentration resulting in 50% luminescent signal
Procedure: (§1) Further to the above Examples, representative compounds, prepared according to the examples were tested for potency in an HCV replicon assay (Genotype 1b) for activity against the virus (EC50) and toxicity to the cells (CC50).
(§2) Huh7 Replicon Cell Lines and Cell Culture Conditions: A luciferase-reporter genotype 1b subgenomic replicon cell line, and a genotype 1a full-length replicon cell line were obtained from Apath, LLC, Brooklyn, N.Y.: All cell lines were passaged twice a week by splitting 4 or 6 fold. Cells were maintained in DMEM-high glucose medium (HyClone, Logan, Utah) supplemented with 9% FBS (HyClone), 2 mM glutamine (Invitrogen, Carlsbad, Calif.), 100 U/mL PenStrep (Invitrogen). Media also contained 0.25 mg/mL of the antibiotic G-418 to maintain stable expression of the replicon (Invitrogen). Incubation was performed at 37° C. in 5% CO2 atmosphere. Replicon cell lines were used until they accumulated 15-to-18 passages, after which cells were restarted from the frozen stock. Seeding cell counts were routinely determined using an automatic Cedex HiRes cell counter (Flownomics Analytical Instruments, Madison, Wis.) or manually using INCYTO C-Chip™ Disposable Hemacytometers (Fisher Scientific, Pittsburg, Pa.).
Cytotoxicity Assay. Cells were seeded into 96-well plates at a density of 2×10^4 cells per well. 24 h after cell plating, 11 serial 2× compound dilutions, starting with 100 µM, were applied to the testing plates (3 repeats per compound dilution). Each testing plate was run with a “no-compound” control. Incubation with compounds was continued at 37° C. in a CO2 incubator for 72 h. To determine cell viability, the CellTiter-Glo® assay (Promega, Madison, Wis.) was performed according to the manufacturer's protocol. The compound concentration resulting in 50% luminescent signal was reported as the CC50 concentration.

[2] = test system: HCV replicon (Genotype 1b); experiment: Luciferase genotype 1b replicon potency assay; format: cell-based, hepatitis C virus; settings: Renilla luciferase reporter activity, 50% decrease vs untreated cells
Procedure: as §1, §2
Luciferase Genotype 1b Replicon Potency Assay. Replicon cells were seeded into white 96-well plates (Nunc/VWR) at a density of 2×10^4 cells/well in medium without G-418. A Stacker Multidrop Liquid Dispenser (MTX Lab Systems, Vienna, Va.) was employed to ensure uniform and fast cell seeding into multiple plates. 18-24 h after cell plating, inhibitors were added and cells were incubated for additional 24, 48, or 72 h (as indicated). Compounds were tested in triplicates and quadruplicates at 3× or 4× serial dilutions over a range of 0.0001-to-10 μM concentrations. HCV replication was monitored by Renilla luciferase reporter activity assay using Renilla luciferase reporter (Promega, Madison, Wis.) and a Veritas Luminometer (Turner Biosystems, Sunnyvale, Calif.). 50% and 90% inhibitory concentration (IC50 and IC90) values were calculated as the concentration of compound that results correspondingly in 50% and 90% decreases in the reporter expression as compared to untreated cells. The values were determined by non-linear regression (four-parameter sigmoidal curve fitting) analysis.

[3] = Hepatitis C virus, Huh-7, Huh7 luciferase-reporter genotype 1b subgenomic replicon cells
[4] = Huh7 HCV replicon cells (genotype 1b)

Compound	CC50 at 72 h [1] [µM]	IC50 [2, 3] [µM]	CC50 at 72 h [1, 4] [µM]	IC50 ([2]; Huh7 luciferase-reporter genotype 1b subgenomic replicon cells) [µM]
C[C@H](NP(=O)(OC[C@H]1O[C@@H](n2ccc(N)nc2=O)[C@](C)(O)[C@@H]1F)Oc1cccc2ccccc12)C(=O)OCC(C)(C)C (stereo partly drawn) [Example 32, (2S)-Neopentyl 2-((((2R,3R,4S,5R)-5-(4-amino-2-oxopyrimidin-1(2H)-yl)-3-fluoro-4-hydroxy-4-methyltetrahydrofuran-2-yl)methoxy)(naphthalen-1-yloxy)phosphorylamino)propanoate]	> 100	> 40		
COc1nc(N)nc2c1ncn2[C@@H]1O[C@H](COP(=O)(N[C@H](C(=O)OCc2ccccc2)C(C)C)Oc2cccc3ccccc23)[C@@H](F)[C@@]1(C)O (stereo partly drawn) [Example 26, (2S)-Benzyl 2-((((2R,3R,4S,5R)-5-(2-amino-6-methoxy-9H-purin-9-yl)-3-fluoro-4-hydroxy-4-methyltetrahydrofuran-2-yl)methoxy)(naphthalen-1-yloxy)phosphorylamino)-3-methylbutanoate]	14	4		
COc1nc(N)nc2c1ncn2[C@@H]1O[C@H](CO)[C@@H](F)[C@@]1(C)O [Example 2, (2R,3S,4R,5R)-2-(2-amino-6-methoxy-9H-purin-9-yl)-4-fluoro-5-(hydroxymethyl)-3-methyltetrahydrofuran-3-ol]		> 100	> 100	
COc1nc(N)nc2c1ncn2[C@@H]1O[C@H](COP(=O)(N[C@@H](C)C(=O)OCC(C)(C)C)Oc2cccc3ccccc23)[C@H](F)[C@@]1(C)O (stereo partly drawn) [Example 29, (2S)-Neopentyl 2-((((2R,3S,4S,5R)-5-(2-amino-6-methoxy-9H-purin-9-yl)-3-fluoro-4-hydroxy-4-methyltetrahydrofuran-2-yl)methoxy)(naphthalen-1-yloxy)phosphorylamino)propanoate]	40	26		
COc1nc(N)nc2c1ncn2[C@@H]1O[C@H](COP(=O)(N[C@@H](C)C(=O)OC2CCOCC2)Oc2cccc3ccccc23)[C@@H](F)[C@@]1(C)O (stereo partly drawn) [Example 19, (2S)-Tetrahydro-2H-pyran-4-yl 2-((((2R,3R,4S,5R)-5-(2-amino-6-methoxy-9H-purin-9-yl)-3-fluoro-4-hydroxy-4-methyltetrahydrofuran-2-yl)methoxy)(naphthalen-1-yloxy)phosphorylamino)propanoate]	77	1.4		
C[C@H](NP(=O)(OC[C@H]1O[C@@H](n2ccc(=O)[nH]c2=O)[C@](C)(O)[C@@H]1F)Oc1cccc2ccccc12)C(=O)OCC(C)(C)C (stereo partly drawn) [Example 33, (2 S)-Neopentyl 2-((((2R,3R,4S,5R)-5-(2,4-dioxo-3,4-dihydropyrimidin-1(2H)-yl)-3-fluoro-4-hydroxy-4-methyltetrahydrofuran-2-yl)methoxy)(naphthalen-1-yloxy)phosphorylamino)propanoate]	75	> 40		
COc1nc(N)nc2c1ncn2[C@@H]1O[C@H](COP(=O)(N[C@@H](C)C(=O)OCc2ccccc2)Oc2cccc3ccccc23)[C@@H](F)[C@@]1(C)O (stereo partly drawn) [Example 12, (2S)-Benzyl 2-((((2R,3R,4S,5R)-5-(2-amino-6-methoxy-9H-purin-9-yl)-3-fluoro-4-hydroxy-4-methyltetrahydrofuran-2-yl)methoxy)(naphthalen-1-yloxy)phosphorylamino)propanoate]	48	0.77		
C[C@@]1(O)[C@H](F)[C@@H](CO)O[C@H]1n1ccc(N)nc1=O [Example 9, 4-Amino-1-((2R,3S,4R,5R)-4-fluoro-3-hydroxy-5-(hydroxymethyl)-3-methyltetrahydrofuran-2-yl)pyrimidin-2(1H)-one]		> 100	> 100	
COc1nc(N)nc2c1ncn2[C@@H]1O[C@H](COP(=O)(N[C@@H](C)C(=O)OCc2ccc(F)cc2F)Oc2cccc3ccccc23)[C@@H](F)[C@@]1(C)O (stereo partly drawn) [Example 13, (2S)-2,4-Difluorobenzyl 2-((((2R,3R,4S,5R)-5-(2-amino-6-methoxy-9H-purin-9-yl)-3-fluoro-4-hydroxy-4-methyltetrahydrofuran-2-yl)methoxy)(naphthalen-1-yloxy)phosphorylamino)propanoate]	68	1		
C[C@H](NP(=O)(OC[C@H]1O[C@@H](n2cnc3c(N4CCC4)nc(N)nc32)[C@](C)(O)[C@@H]1F)Oc1cccc2ccccc12)C(=O)OC1CCCCC1 (stereo partly drawn) [Example 25, (2S)-Cyclohexyl 2-((((2R,3R,4S,5R)-5-(2-amino-6-(azetidin-1-yl)-9H-purin-9-yl)-3-fluoro-4-hydroxy-4-methyltetrahydrofuran-2-yl)methoxy)(naphthalen-1-yloxy)phosphorylamino)propanoate]	33	0.95		
C[C@@]1(O)[C@H](F)[C@@H](CO)O[C@H]1n1cnc2c(N)ncnc21 [Example 8, (2R,3S,4R,5R)-2-(6-Amino-9H-purin-9-yl)-4-fluoro-5-(hydroxymethyl)-3-methyltetrahydrofuran-3-ol]		> 100	> 100	
COc1nc(N)nc2c1ncn2[C@@H]1O[C@H](COP(=O)(N[C@@H](C)C(=O)OCc2ccccc2)Oc2cccc3ccccc23)[C@H](F)[C@@]1(C)O (stereo partly drawn) [Example 28, (2S)-Benzyl 2-((((2R,3S,4S,5R)-5-(2-amino-6-methoxy-9H-purin-9-yl)-3-fluoro-4-hydroxy-4-methyltetrahydrofuran-2-yl)methoxy)(naphthalen-1-yloxy)phosphorylamino)propanoate]	92	> 40		
C[C@@]1(O)[C@H](F)[C@@H](CO)O[C@H]1n1cnc2c(N3CCC3)nc(N)nc21 [Example 7, (2R,3S,4R,5R)-2-(2-Amino-6-(azetidin-1-yl)-9H-purin-9-yl)-4-fluoro-5-(hydroxymethyl)-3-methyltetrahydrofuran-3-ol]		24	> 100	> 40
C[C@H](NP(=O)(OC[C@H]1O[C@@H](n2cnc3c(N4CCC4)nc(N)nc32)[C@](C)(O)[C@@H]1F)Oc1cccc2ccccc12)C(=O)OC1CCCC1 (stereo partly drawn) [Example 24, (2S)-Cyclopentyl 2-((((2R,3R,4S,5R)-5-(2-amino-6-(azetidin-1-yl)-9H-purin-9-yl)-3-fluoro-4-hydroxy-4-methyltetrahydrofuran-2-yl)methoxy)(naphthalen-1-yloxy)phosphorylamino)propanoate]	50	0.9		
COc1nc(N)nc2c1ncn2[C@@H]1O[C@H](CO)[C@H](F)[C@@]1(C)O [Example 11, (2R,3S,4S,5R)-2-(2-Amino-6-methoxy-9H-purin-9-yl)-4-fluoro-5-(hydroxymethyl)-3-methyltetrahydrofuran-3-ol]		> 100	> 100	
C[C@@]1(O)[C@H](F)[C@@H](CO)O[C@H]1n1cnc2c(=O)[nH]c(N)nc21 [Example 3, 2-amino-9-((2R,3S,4R,5R)-4-fluoro-3-hydroxy-5-(hydroxymethyl)-3-methyltetrahydrofuran-2-yl)-1H-purin-6(9H)-one]		> 100	> 100	
